EPA's ToxValDB 9.5
Values joined by “and” are separate entries in the source; they are usually repeats but may differ in a detail not shown here. Equal entries are not always repeated.

Test system: Rattus norvegicus
Settings: oral
[1] = chronic, duration: 6 months, drinking water, M/F, Sprague-Dawley, Morris water maze (escape time, acquisition, day 6)
[2] = chronic, duration: 6 months, drinking water, M, Wistar, open field (entries to neighboring grids, day 1) + Y-maze (correct responses, day 9)
[3] = chronic, duration: 6 months, drinking water, M, Wistar, open field (standing attempts, day 1) + open field (standing attempts, day 9) + open field (time in central grid, day 1) + Y-maze (correct …
[4] = developmental, drinking water, M/F, Wistar, generation: F1, F1: active avoidance (shuttle box, conditioned avoidance response, day 2)
[5] = developmental, drinking water, M/F, Wistar, generation: F1, F1: maze test (latency to complete, day 1) + F1: maze test (latency to complete, day 5) + F1: maze test (number entries into blind alleys, …
[6] = developmental, drinking water, M, Wistar, generation: F1, F1: elevated plus maze (open arm entries) + F1: elevated plus maze (time in open arms) + F1: open field (grooming events) + F1: open field (…

`[F-].[Na+]` [Sodium fluoride] was tested, and the LOEL (chronic, duration: 5 months, drinking water, Sprague-Dawley, Y-maze (number of correct responses over 10 trainings after 24 hours) + Y-maze (number of training runs to meet learning standard 90%)) was 9.8 mg/kg-day, the LOEL (chronic, duration: 5 months, drinking water, Wistar, Y-maze (number of training runs to achieve 9 consecutive correct responses)) was 6.91 mg/kg-day and the NOEL (chronic, duration: 6 months, drinking water, M/F, Sprague-Dawley, Morris water maze (escape time, acquisition, day 1)) was 3.28 mg/kg-day and 3.27 mg/kg-day. The LOEL [1] was 3.27 mg/kg-day, the NOEL [1] was 0.33 mg/kg-day and the LOEL (chronic, duration: 6 months, drinking water, M/F, Sprague-Dawley, Morris water maze (escape time, acquisition, day 6) + Morris water maze (escape time, probe test, day 7)) was 0.33 mg/kg-day. It also gave an LOEL (chronic, duration: 6 months, drinking water, M/F, Sprague-Dawley, Morris water maze (escape time, acquisition, day 6) + Morris water maze (time in platform area, probe test, day 7) + Morris water maze (time…) of 0.33 mg/kg-day, an NOEL (chronic, duration: 6 months, drinking water, M/F, Sprague-Dawley, Morris water maze (platform crossing, probe test, day 7)) of 3.27 mg/kg-day and an LOEL (chronic, duration: 6 months, drinking water, M/F, Sprague-Dawley, Morris water maze (time in platform area, probe test, day 7)) of 0.33 mg/kg-day. For the same molecule, the LOEL (chronic, duration: 6 months, drinking water, M, Wistar, Y-maze (time to meet learning standard 90%)) was 3.34 mg/kg-day, the LOEL [2] was 10 mg/kg-day and the NOEL [2] was 6.67 mg/kg-day. For the same molecule, the NOEL (chronic, duration: 6 months, drinking water, M, Wistar, open field (entries to neighboring grids, day 9) + open field (time in central grid, day 9)) was 10 mg/kg-day, the LOEL [3] was 6.67 mg/kg-day and the NOEL [3] was 3.34 mg/kg-day. The LOEL (chronic, duration: 10 months, drinking water, M/F, Sprague-Dawley, Morris water maze (escape time, acquisition, average over days 1-6) + Morris water maze (platform crossing, probe test, day 7)) was 2.16 mg/L urine, the LOEL (chronic, duration: 14 weeks, drinking water, M, Wistar, sexual behavior (ejaculation frequency) + sexual behavior (ejaculation latency) + sexual behavior (intromission latency) + sexual behavior (…) was 6.67 mg/kg-day and the NOEL (chronic, duration: 115 days, drinking water, M, Wistar, open field (squares crossed)) was 6.67 mg/kg-day. The LOEL (chronic, duration: 115 days, drinking water, M, Wistar, plank walking (narrow, distance traveled) + plank walking (narrow, number of turns) + plank walking (wide, distance traveled) + plank …) was 6.67 mg/kg-day, the LOEL (developmental, diet, M/F, Sprague-Dawley, generation: F1, F1: Morris water maze (escape time, acquisition, day 6) + F1: Morris water maze (platform crossing, probe test, day 7) + F1: Morris water …) was 8.52 mg/L urine and the NOEL (developmental, drinking water, F, Wistar, generation: F1, F1: cliff avoidance + F1: ear opening + F1: negative geotaxis + F1: surface righting) was 0.54 mg/kg-day. It also gave an LOEL (developmental, drinking water, F, Wistar, generation: F1, F1: elevated plus maze (open arm entries) + F1: elevated plus maze (time in open arms) + F1: open field (grooming events) + F1: open field (…) of 0.27 mg/kg-day, an NOEL (developmental, drinking water, F, Wistar, generation: F1, F1: elevated plus maze (open arm entries) + F1: open field (defecation) + F1: open field (grooming events) + F1: open field (rearing events…) of 0.54 mg/kg-day and an LOEL (developmental, drinking water, F, Wistar, generation: F1, F1: elevated plus maze (time in open arms)) of 0.27 mg/kg-day. It also gave an LOEL (developmental, drinking water, F, Wistar, generation: F1, F1: eye opening) of 0.27 mg/kg-day, an NOEL (developmental, drinking water, F, Wistar, generation: F1, F1: open field (defecation) + F1: open field (rearing events, 15 min)) of 0.54 mg/kg-day and an LOEL (developmental, drinking water, M/F, Sprague-Dawley, generation: F1, F1: Morris water maze (distance traveled to reach platform, acquisition, day 4) + F1: Morris water maze (latency to reach platform, …) of 1.63 mg/kg-day. For the same molecule, the LOEL (developmental, drinking water, M/F, Sprague-Dawley, generation: F1, F1: Morris water maze (escape time, acquisition, average over days 1-6) + F1: Morris water maze (platform crossing, probe test, day 7) + F1…) was 3.27 mg/kg-day, the NOEL (developmental, drinking water, M/F, Sprague-Dawley, generation: F1, F1: Morris water maze (swim speed to reach platform, acquisition, day 4)) was 6.53 mg/kg-day and the LOEL [4] was 4.35 mg/kg-day. The NOEL [4] was 2.18 mg/kg-day, the LOEL (developmental, drinking water, M/F, Wistar, generation: F1, F1: active avoidance (shuttle box, conditioned avoidance response, day 9) + F1: pain response (hot plate, latency period)) was 2.18 mg/kg-day and the LOEL (developmental, drinking water, M/F, Wistar, generation: F1, F1: elevated plus maze (open arm entries) + F1: elevated plus maze (time in open arms) + F1: mid-air righting (number of animals successful…) was 9.05 mg/kg-day. It also gave an LOEL [5] of 4.87 mg/kg-day, an NOEL [5] of 2.33 mg/kg-day and an LOEL (developmental, drinking water, M/F, Wistar, generation: F1, F1: open field (rearing events, day 1) + F1: open field (rearing events, day 3)) of 2.33 mg/kg-day. It also gave an NOEL (developmental, drinking water, M/F, Wistar, generation: F1, F1: open field (squares crossed, day 1) + F1: open field (squares crossed, day 3)) of 4.87 mg/kg-day, an LOEL (developmental, drinking water, M/F, Wistar, generation: F1, F1: passive avoidance (step-down test, number of shocks, session 2, day 30) + F1: passive avoidance (step-down test, time to move from …) of 6.91 mg/kg-day and an NOEL (developmental, drinking water, M, Wistar, generation: F1, F1: cliff avoidance + F1: ear opening + F1: negative geotaxis + F1: surface righting) of 0.54 mg/kg-day. The LOEL [6] was 0.27 mg/kg-day, the NOEL [6] was 0.54 mg/kg-day and the LOEL (developmental, drinking water, M, Wistar, generation: F1, F1: eye opening) was 0.27 mg/kg-day. It also gave an LOEL (developmental, drinking water, M, Wistar, generation: F1, F1: open field (defecation)) of 0.27 mg/kg-day, an NOEL (developmental, drinking water, M, Wistar, generation: F1, F1: open field (defecation) + F1: open field (rearing events, 15 min)) of 0.54 mg/kg-day and an LOEL (developmental, drinking water, M, Wistar, generation: F1, F1: sexual behavior (% of males ejaculating) + F1: sexual behavior (ejaculation frequency) + F1: sexual behavior (ejaculation latency) + F1…) of 3.12 mg/kg-day. For the same molecule, the NOEL (developmental, drinking water, Wistar, generation: F1, F1: Y-maze (error number, 12 weeks) + F1: Y-maze (error number, 6 weeks) + F1: Y-maze (time to meet learning standard 90%, 6 weeks) + F1: Y-…) was 2.78 mg/L serum, the LOEL (developmental, drinking water, Wistar, generation: F1, F1: Y-maze (time to meet learning standard 90%, 12 weeks) + F1: Y-maze (total reaction time, 6 weeks)) was 2.78 mg/L serum and the NOEL (developmental, gavage, F, Wistar, generation: F1, F1: active avoidance (shuttle box, conditioned avoidance response, 1st block) + F1: active avoidance (shuttle box, conditioned avoidance …) was 2.26 mg/kg-day.
